Values joined by “and” are separate entries in the source; they are usually repeats but may differ in a detail not shown here. Equal entries are not always repeated. Structures can show the parent of a compound that is named as a salt.
How the values were obtained:
[1] = test system: mouse; test: Maximal tolerated dose of free BUP; format: in vivo
[2] = test system: Mice (male Swiss-Webster); test: Analgesic efficacy in mouse model (electrical stimulation of abdominal skin, vocalization threshold); format: in vivo; parameters: key: 1 = analgesia; 0 = no analgesia; 10 = partial analgesia
Protocol: Testing for analgesia was done by electrical stimulation of the skin directly overlying the abdomen at the site of injection using a current generator (model S48, Grass Instruments).
Mice (male Swiss-Webster, 26±3 gr) were tested prior to injection to determine the vocalization threshold than were injected with encapsulation BUP liposomes than determine analgesic duration (G. J. Grant et al, pharmaceutical research, vol 18, no. 3, 336-343, 2001).
In order to evaluate the effect of altering the volume and BUP concentration of the injection, in each group, three mice received 150 μL of the 2% formulation and 3 mice received 300 μL of a 1:1 diluted 2% formulation.
In these Tables, an numeric score of “1” denotes full analgesia, a numeric score of “0” was given when there was no analgesic effect, and a numeric value of “10” when there was partial analgesia.
As indicated above, the numerical score to the spreadsheet was introduced for the evaluation of the analgesic effect of various liposome preparations performance in vivo: For each time period (e.g. 4 hrs, 8 hrs etc) a numeric value of 1 was given if the anesthesia was complete; 10 or 0.5 was given when analgesia was partial (incomplete) and 0 for no anesthesia. The mean for each subgroup was calculated separately (i.e. 1% 300 μl, 2% 150 μg).

[3] = individual mice, Bup conc 0.25%, volume 150 ul, 0.375 mg Bup
[4] = individual mice, Bup conc 0.25%, volume 150 ul, 0.375 mg Bup, hydrochloride
[5] = individual mice, Bup conc 0.25%, volume 300 ul, 0.75 mg Bup
[6] = individual mice, Bup conc 0.25%, volume 300 ul, 0.75 mg Bup, hydrochloride
[7] = individual mice, Bup conc 0.50%, volume 150 ul, 0.75 mg Bup
[8] = individual mice, Bup conc 0.50%, volume 150 ul, 0.75 mg Bup, hydrochloride
[9] = mice, 0.25%, 150 ul, 0.375 mg Bup
[10] = mice, 0.25%, 150 ul, 0.375 mg Bup, hydrochloride
[11] = mice, 0.25%, 300 ul, 0.75 mg Bup
[12] = mice, 0.25%, 300 ul, 0.75 mg Bup, hydrochloride
[13] = mice, 0.50%, 150 ul, 0.75 mg Bup
[14] = mice, 0.50%, 150 ul, 0.75 mg Bup, hydrochloride

CCCCN1CCCCC1C(=O)Nc1c(C)cccc1C (stereo not drawn) [Standard Bupivacaine, Bupivacaine hydrochloride]
maximal tolerated dose, MTD [1]: 0.75 mg/mouse | Analgesic effect score at 15 min [2, 3]: 1 | Analgesic effect score at 30 min [2, 3]: 1 | Analgesic effect score at 45 min [2, 3]: 1 | Analgesic effect score at 60 min [2, 4]: 0 (5×) and 1 (2×) and 10 | Analgesic effect score at 75 min [2, 4]: 0 (7×) and 10 | Analgesic effect score at 90 min [2, 3]: 0 | Analgesic effect score at 15 min [2, 5]: 1 | Analgesic effect score at 30 min [2, 5]: 1 | Analgesic effect score at 45 min [2, 5]: 1 | Analgesic effect score at 60 min [2, 5]: 1 | Analgesic effect score at 75 min [2, 6]: 0 and 1 (7×) | Analgesic effect score at 90 min [2, 6]: 0 and 1 (5×) and 10 (2×) | Analgesic effect score at 105 min [2, 6]: 0 (5×) and 10 and 1 (2×) | Analgesic effect score at 120 min ([2]; individual mice, Bup conc 0.25%, volume 300 ul, 0.75 mg Bup, 120 min, hydrochloride): 0 (7×) and 10 | Analgesic effect score at 135 min ([2]; individual mice, Bup conc 0.25%, volume 300 ul, 0.75 mg Bup, 135 min): 0 | Analgesic effect score at 15 min [2, 7]: 1 | Analgesic effect score at 30 min [2, 7]: 1 | Analgesic effect score at 45 min [2, 7]: 1 | Analgesic effect score at 60 min [2, 8]: 1 (7×) and 10 | Analgesic effect score at 75 min [2, 8]: 1 (6×) and 0 and 10 | Analgesic effect score at 90 min [2, 8]: 0 (4×) and 10 (2×) and 1 (2×) | Analgesic effect score at 105 min [2, 7]: 0 | analgesia 15 min [2, 9]: 1 | analgesia 30 min [2, 9]: 1 | analgesia 45 min [2, 9]: 1 | analgesia 60 min [2, 10]: 0 and 1 and 10 | analgesia 75 min [2, 10]: 0 and 10 | analgesia 90 min [2, 9]: 0 | analgesia 15 min [2, 11]: 1 | analgesia 30 min [2, 11]: 1 | analgesia 45 min [2, 11]: 1 | analgesia 60 min [2, 11]: 1 | analgesia 75 min [2, 12]: 0 and 1 | analgesia 90 min [2, 12]: 0 and 1 and 10 | analgesia 105 min [2, 12]: 0 and 10 and 1 | analgesia 120 min ([2]; mice, 0.25%, 300 ul, 0.75 mg Bup, 120 min, hydrochloride): 0 and 10 | analgesia 135 min ([2]; mice, 0.25%, 300 ul, 0.75 mg Bup, 135 min): 0 | analgesia 15 min [2, 13]: 1 | analgesia 30 min [2, 13]: 1 | analgesia 45 min [2, 13]: 1 | analgesia 60 min [2, 14]: 1 and 10 | analgesia 75 min [2, 14]: 1 and 0 and 10 | analgesia 90 min [2, 14]: 0 and 10 and 1 | analgesia 105 min [2, 13]: 0

Source: patent US20110250266A1, “LIPOSOMAL SYSTEMS COMPRISING SPHINGOMYELIN” (Yissum Research Development Company of the Hebrew …, priority 2008, published 2011)
